# Values quoted from earlier work as cited in patent US20250212890A1, “COMBINATIONS OF AV3 MUTANT POLYPEPTIDES AND Bt TOXINS FOR PEST CONTROL” (Vestaron Corporation, priority 2022, published 2025).
# How the values were obtained:
# [1] = test system: crustacean and insect sodium channels; conditions: Moran et al., Toxicon 2009
# [2] = test system: mammalian sodium channels; conditions: Moran et al., Toxicon 2009
substance,measurement,setting,value
Av3,selectivity for crustacean and insect sodium channels,[1],high selectivity
same,selectivity for mammalian sodium channels,[2],low selectivity
